How the values were obtained:
Assay type in all cases: biochemical
Settings in all cases: labelled compound; histone H1, MBP or casein as phosphoacceptor; 10 µM ATP, Mg/Mn, pH 7.5, 37 °C
[1] = molecular target: T1, PfCLK-3 (Plasmodium falciparum, UniProt Q8IIL5); assay: radiometric kinase assay of immunoprecipitate, autoradiography
T1 construct: gene PF3D7_1114700; endogenous full-length, about 80 kDa, immunoprecipitated from mixed asexual blood stage lysate on protein G-beads
T1 sequence (Q8IIL5 1-699): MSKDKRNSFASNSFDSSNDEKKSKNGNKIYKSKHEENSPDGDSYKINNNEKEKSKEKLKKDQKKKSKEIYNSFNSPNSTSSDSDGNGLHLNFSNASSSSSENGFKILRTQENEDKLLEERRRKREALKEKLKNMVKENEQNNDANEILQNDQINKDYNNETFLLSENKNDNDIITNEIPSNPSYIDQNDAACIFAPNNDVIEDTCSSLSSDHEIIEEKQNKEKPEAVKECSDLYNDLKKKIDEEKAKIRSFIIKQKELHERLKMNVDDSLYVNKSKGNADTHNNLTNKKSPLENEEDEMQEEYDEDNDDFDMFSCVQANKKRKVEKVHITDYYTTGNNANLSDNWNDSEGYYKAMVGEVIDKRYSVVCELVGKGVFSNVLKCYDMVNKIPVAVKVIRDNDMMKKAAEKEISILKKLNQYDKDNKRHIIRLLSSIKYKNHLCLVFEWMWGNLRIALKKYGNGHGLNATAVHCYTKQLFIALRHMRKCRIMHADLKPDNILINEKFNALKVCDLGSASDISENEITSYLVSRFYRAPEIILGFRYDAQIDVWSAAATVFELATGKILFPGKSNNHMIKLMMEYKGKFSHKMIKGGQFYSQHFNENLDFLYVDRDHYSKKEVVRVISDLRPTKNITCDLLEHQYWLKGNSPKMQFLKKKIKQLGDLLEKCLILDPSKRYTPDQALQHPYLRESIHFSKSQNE

[2] = molecular target: T2, PfCLK-2 (Plasmodium falciparum, UniProt Q8IL41); assay: as above
T2 construct: gene PF3D7_1443000; endogenous full-length, about 150 kDa, immunoprecipitated from mixed asexual blood stage lysate on protein G-beads
T2 sequence (Q8IL41 1-1268): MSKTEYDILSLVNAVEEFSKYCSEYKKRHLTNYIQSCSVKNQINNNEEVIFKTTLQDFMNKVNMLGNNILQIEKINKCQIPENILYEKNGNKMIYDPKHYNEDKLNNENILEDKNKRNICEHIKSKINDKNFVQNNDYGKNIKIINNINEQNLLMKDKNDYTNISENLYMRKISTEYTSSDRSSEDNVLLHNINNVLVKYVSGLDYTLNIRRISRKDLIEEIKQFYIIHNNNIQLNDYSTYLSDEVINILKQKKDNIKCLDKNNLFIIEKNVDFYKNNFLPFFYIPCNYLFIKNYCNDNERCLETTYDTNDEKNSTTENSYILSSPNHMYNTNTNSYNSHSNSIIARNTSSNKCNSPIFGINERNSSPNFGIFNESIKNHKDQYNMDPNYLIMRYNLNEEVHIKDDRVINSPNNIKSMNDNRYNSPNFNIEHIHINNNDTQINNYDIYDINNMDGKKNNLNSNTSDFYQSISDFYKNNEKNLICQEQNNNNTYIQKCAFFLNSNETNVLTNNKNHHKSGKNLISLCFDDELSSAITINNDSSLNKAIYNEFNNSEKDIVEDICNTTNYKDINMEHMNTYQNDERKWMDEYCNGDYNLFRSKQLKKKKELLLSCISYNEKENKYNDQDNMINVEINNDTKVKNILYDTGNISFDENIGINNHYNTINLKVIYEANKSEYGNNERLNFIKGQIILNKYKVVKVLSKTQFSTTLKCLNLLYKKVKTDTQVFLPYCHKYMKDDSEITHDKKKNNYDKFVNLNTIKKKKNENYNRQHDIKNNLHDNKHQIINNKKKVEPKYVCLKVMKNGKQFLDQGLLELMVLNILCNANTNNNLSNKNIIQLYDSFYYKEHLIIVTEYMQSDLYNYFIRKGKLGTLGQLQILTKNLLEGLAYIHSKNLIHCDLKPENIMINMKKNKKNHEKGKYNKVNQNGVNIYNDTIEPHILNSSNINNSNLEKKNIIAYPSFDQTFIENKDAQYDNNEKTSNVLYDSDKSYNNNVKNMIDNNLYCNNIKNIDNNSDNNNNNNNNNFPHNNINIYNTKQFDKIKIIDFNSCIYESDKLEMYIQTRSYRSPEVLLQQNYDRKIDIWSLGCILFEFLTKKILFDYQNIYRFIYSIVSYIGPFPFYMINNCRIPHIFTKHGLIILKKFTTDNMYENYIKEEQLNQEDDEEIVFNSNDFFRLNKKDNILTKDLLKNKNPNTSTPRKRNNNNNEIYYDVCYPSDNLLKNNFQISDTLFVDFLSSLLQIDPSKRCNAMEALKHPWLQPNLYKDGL

[3] = molecular target: T3, PfCLK-4 (Plasmodium falciparum, UniProt O77306); assay: as above
T3 construct: gene PF3D7_0302100; endogenous full-length, about 160 kDa, immunoprecipitated from mixed asexual blood stage lysate on protein G-beads
T3 sequence (O77306 1-1338): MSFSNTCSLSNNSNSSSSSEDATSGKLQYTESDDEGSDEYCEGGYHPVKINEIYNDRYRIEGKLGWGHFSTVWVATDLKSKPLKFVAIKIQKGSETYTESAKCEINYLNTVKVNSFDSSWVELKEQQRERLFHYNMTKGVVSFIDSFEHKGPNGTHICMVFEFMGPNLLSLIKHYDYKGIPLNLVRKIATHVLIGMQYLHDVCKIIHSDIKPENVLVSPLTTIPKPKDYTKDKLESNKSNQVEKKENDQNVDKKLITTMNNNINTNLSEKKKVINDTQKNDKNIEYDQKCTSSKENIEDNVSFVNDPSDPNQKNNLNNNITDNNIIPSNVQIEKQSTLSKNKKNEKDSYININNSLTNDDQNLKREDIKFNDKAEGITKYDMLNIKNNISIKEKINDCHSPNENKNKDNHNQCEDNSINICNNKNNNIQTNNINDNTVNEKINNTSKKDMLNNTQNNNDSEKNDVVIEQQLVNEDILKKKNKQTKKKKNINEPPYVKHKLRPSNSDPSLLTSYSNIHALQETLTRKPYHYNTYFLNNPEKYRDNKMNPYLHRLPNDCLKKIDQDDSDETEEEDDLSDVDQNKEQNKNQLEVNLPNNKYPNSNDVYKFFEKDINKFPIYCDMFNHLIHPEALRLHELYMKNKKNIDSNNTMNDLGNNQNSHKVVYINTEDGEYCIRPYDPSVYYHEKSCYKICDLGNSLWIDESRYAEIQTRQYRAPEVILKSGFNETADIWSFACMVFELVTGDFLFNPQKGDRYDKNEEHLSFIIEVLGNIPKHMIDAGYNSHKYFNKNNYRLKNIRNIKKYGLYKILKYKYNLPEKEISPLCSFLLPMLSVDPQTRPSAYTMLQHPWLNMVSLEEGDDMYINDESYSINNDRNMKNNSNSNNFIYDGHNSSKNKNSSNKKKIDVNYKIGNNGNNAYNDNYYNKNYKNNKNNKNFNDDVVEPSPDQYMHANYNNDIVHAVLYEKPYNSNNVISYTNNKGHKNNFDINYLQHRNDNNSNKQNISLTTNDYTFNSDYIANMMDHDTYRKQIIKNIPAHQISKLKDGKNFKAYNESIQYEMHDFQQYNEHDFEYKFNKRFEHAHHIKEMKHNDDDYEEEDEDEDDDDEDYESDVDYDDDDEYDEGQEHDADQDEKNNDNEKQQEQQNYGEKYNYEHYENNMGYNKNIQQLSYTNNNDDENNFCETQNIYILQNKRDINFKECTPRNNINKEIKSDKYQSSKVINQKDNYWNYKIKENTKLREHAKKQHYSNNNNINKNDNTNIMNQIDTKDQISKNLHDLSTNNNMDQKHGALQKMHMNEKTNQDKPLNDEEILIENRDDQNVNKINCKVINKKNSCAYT

[4] = molecular target: T4, PfPK6 (Plasmodium falciparum, UniProt O77239); assay: radiometric kinase assay, autoradiography
T4 construct: gene PK6; recombinant His6-tagged, purified as previously reported
T4 sequence (O77239 1-305): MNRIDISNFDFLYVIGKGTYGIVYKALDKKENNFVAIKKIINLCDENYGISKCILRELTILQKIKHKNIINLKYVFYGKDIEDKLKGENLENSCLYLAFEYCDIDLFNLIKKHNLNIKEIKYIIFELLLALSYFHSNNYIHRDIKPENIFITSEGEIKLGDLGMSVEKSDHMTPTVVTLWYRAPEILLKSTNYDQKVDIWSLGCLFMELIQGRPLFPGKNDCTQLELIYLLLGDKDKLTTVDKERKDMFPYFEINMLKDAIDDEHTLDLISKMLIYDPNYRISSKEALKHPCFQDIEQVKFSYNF

Compound: Nc1ncnc2c1ncn2[C@@H]1O[C@H](COP(=O)(O)OP(=O)(O)OP(=O)(O)O)[C@@H](O)[C@H]1O [ATP]
- radiometric kinase assay of immunoprecipitate, autoradiography [1]: All PfCLKs were associated with phosphorylation activity of all three substrates
- radiometric kinase assay of immunoprecipitate, autoradiography [2]: All PfCLKs were associated with phosphorylation activity of all three substrates
- radiometric kinase assay of immunoprecipitate, autoradiography [3]: All PfCLKs were associated with phosphorylation activity of all three substrates
- radiometric kinase assay, autoradiography [4]: also exhibited strong phosphorylation activity of the three exogenous substrates

From PMC4154858, “Inhibition of the SR Protein-Phosphorylating CLK Kinases of Plasmodium falciparum Impairs Blood Stage Replication and Malaria Transmission” (PLoS ONE, 2014)
